In ChEMBL document CHEMBL3779897, “Novel quinoline-derived mTOR inhibitors with remarkable enzymatic and cellular activities: design, synthesis and biological evaluation” (Medchemcomm, 2016):
Calls of active or inactive are those of the source. No cut-off for these calls is given here.

Columns and labels:
cells [1] = details: Homo sapiens, PC-3, 72 h
MCF7 [2] = test: cells; details: Homo sapiens, MCF7, 72 h
cells [3] = details: Homo sapiens, HCT-116, 72 h
[4] = target: T1, Serine/threonine-protein kinase mTOR (Homo sapiens, UniProt P42345); test: Inhibition of human mTOR at 3000 nM using ULight-4E-BP1 peptide as substrate after 1 hr by Lance ultra assay
[5] = target: T2, Phosphatidylinositol 4,5-bisphosphate 3-kinase catalytic subunit beta isoform (Homo sapiens, UniProt P42338); test: Inhibition of PI3Kbeta (unknown origin) at 1 uM after 1 hr by ADP-Glo luminescent assay
Target sequence in this assay (P42338 whole entry, looked up, canonical isoform): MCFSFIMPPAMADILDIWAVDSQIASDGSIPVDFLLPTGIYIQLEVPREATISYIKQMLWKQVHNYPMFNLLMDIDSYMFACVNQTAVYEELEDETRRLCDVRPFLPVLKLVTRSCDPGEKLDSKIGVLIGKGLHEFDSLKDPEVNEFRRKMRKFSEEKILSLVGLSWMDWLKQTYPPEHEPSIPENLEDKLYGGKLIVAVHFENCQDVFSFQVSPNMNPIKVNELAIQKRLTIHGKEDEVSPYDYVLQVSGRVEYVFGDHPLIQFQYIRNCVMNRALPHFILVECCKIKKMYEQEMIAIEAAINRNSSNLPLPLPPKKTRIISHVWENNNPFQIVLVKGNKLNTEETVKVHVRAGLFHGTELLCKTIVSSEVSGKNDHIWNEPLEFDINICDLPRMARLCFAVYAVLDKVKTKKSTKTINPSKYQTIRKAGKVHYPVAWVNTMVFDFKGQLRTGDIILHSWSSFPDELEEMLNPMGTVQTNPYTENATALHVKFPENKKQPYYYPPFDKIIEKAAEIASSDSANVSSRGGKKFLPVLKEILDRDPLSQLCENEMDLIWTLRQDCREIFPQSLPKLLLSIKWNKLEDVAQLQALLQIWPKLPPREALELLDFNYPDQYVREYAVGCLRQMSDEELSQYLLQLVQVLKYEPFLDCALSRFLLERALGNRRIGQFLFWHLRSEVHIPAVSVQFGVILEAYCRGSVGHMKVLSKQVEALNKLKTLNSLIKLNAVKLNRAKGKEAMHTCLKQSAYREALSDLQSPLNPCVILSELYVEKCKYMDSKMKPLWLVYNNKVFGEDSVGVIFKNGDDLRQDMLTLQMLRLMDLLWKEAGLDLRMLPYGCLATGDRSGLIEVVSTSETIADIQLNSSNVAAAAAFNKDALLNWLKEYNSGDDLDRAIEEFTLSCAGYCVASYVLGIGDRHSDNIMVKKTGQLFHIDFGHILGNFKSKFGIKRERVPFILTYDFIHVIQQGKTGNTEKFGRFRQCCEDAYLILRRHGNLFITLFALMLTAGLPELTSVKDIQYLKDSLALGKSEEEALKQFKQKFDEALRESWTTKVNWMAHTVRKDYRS

[6] = target: T3, Phosphatidylinositol 4,5-bisphosphate 3-kinase catalytic subunit gamma isoform (Homo sapiens, UniProt P48736); test: Inhibition of human PI3Kgamma at 1 uM after 1 hr by ADP-Glo luminescent assay
Target sequence in this assay (P48736 whole entry, looked up, canonical isoform): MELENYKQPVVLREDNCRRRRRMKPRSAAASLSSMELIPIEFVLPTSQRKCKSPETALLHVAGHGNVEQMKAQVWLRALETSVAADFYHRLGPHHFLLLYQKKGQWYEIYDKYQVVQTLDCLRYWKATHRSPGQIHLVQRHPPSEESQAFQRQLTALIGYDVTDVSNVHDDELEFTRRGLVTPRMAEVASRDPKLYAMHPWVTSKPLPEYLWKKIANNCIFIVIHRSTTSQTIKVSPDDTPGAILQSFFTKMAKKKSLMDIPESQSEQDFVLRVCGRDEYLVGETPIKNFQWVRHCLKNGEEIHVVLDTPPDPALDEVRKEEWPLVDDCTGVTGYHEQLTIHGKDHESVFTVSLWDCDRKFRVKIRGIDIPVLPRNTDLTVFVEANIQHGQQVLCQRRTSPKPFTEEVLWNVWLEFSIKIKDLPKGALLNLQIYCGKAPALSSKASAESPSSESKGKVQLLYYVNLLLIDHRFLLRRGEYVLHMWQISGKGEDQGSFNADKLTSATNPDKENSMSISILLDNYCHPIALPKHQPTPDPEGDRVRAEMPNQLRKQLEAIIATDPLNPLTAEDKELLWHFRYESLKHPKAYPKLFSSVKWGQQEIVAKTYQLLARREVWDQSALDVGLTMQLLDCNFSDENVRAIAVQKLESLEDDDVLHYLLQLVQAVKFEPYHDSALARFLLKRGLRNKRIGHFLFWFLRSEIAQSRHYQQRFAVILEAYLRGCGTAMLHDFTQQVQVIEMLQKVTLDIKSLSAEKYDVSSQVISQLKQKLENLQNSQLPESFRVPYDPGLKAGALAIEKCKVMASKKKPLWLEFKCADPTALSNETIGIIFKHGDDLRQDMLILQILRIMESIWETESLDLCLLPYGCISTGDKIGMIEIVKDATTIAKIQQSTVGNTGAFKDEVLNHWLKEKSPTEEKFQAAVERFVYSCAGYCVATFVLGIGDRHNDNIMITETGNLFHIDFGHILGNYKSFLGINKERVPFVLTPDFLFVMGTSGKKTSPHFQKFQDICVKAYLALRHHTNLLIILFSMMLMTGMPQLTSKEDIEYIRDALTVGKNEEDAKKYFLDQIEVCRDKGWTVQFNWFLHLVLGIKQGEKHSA

[7] = target: T4, Phosphatidylinositol 4,5-bisphosphate 3-kinase catalytic subunit alpha isoform (Homo sapiens, UniProt P42336); test: Inhibition of human recombinant PI3Kalpha using PIP2 as substrate at 1 uM after 1 hr by Kinase-Glo luminescent assay
T4 sequence (P42336 whole entry, canonical isoform): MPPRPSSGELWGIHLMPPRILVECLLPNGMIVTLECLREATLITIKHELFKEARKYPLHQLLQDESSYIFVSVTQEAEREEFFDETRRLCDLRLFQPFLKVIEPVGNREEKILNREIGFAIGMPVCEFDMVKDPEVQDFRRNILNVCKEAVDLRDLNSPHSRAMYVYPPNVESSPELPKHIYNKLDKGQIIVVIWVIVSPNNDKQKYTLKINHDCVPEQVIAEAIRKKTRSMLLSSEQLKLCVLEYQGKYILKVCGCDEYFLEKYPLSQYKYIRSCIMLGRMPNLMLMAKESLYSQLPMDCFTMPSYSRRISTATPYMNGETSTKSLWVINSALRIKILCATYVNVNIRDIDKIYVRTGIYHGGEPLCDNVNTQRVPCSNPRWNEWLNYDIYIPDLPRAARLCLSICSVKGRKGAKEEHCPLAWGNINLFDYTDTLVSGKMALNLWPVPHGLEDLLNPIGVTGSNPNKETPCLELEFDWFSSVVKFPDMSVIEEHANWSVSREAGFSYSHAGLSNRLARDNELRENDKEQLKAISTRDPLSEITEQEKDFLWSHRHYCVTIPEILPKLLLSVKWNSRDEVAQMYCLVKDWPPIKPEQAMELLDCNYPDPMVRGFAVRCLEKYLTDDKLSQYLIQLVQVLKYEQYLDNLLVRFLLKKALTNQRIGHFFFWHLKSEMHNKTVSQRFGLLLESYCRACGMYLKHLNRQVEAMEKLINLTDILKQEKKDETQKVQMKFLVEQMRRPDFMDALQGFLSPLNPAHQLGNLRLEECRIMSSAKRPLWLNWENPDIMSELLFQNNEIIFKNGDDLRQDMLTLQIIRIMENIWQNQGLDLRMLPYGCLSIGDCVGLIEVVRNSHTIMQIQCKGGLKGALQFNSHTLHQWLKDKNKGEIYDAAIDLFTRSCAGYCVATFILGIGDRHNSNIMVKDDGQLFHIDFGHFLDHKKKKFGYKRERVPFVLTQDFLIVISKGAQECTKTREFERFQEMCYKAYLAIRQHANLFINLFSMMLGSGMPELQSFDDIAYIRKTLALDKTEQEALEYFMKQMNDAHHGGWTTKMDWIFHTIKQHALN

[8] = target: T1, Serine/threonine-protein kinase mTOR; test: Inhibition of human mTOR using ULight-4E-BP1 peptide as substrate after 1 hr by Lance ultra assay
[9] = Stability in simulated intestinal fluid after 45 mins; format: ADME; details: simulated gi fluid, 0.75 h
Liver microsome = test: Stability in rat liver microsomes after 30 mins; format: ADME; details: 0.5 h
[10] = target: T5, Phosphatidylinositol 4,5-bisphosphate 3-kinase catalytic subunit delta isoform (Homo sapiens) (UniProt O00329); test: Inhibition of PI3Kdelta (unknown origin) at 1 uM after 1 hr by ADP-Glo luminescent assay
T5 sequence (whole entry): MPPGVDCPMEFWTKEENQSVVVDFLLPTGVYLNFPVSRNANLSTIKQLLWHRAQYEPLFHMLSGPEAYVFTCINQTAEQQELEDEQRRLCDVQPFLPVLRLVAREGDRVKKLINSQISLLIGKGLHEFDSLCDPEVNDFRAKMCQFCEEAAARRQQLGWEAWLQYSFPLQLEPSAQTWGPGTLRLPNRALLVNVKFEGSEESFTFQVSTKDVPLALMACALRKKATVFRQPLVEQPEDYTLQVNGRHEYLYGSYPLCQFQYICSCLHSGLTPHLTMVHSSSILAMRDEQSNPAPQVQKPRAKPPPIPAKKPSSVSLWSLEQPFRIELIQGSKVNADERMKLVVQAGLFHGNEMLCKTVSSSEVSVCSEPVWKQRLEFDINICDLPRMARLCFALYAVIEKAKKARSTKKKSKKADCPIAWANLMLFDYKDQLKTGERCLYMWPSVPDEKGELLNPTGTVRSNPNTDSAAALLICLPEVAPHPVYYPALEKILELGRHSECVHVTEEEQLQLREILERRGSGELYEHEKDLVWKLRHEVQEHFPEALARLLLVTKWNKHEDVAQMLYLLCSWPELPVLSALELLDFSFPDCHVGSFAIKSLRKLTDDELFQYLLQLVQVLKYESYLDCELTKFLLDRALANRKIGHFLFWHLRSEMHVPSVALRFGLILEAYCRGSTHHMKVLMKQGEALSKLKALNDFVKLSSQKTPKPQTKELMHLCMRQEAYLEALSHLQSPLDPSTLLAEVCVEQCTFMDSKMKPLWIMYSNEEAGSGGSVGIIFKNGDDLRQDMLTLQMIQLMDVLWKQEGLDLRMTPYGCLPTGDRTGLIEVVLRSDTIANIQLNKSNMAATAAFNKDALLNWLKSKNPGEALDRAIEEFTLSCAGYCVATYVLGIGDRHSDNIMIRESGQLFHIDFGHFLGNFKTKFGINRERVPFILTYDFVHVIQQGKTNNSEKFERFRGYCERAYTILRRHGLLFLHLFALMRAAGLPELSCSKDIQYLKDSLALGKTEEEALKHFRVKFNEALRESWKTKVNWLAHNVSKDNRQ

[11] = Stability in simulated gastric fluid after 45 mins; format: ADME; details: simulated gi fluid, 0.75 h
MCF7 [12] = test: Inhibition of mTORC2 in human MCF7 cells assessed as downregulation of Akt Ser473 phosphorylation at 0.1 uM after 2 hrs by Western blot analysis; format: cell-based
[13] = target: T3, Phosphatidylinositol 4,5-bisphosphate 3-kinase catalytic subunit gamma isoform; test: Inhibition of human PI3Kgamma after 1 hr by ADP-Glo luminescent assay
Target sequence in this assay (P48736 whole entry, canonical isoform): as the sequence (P48736 whole entry, looked up, canonical isoform) above

mTORC1 (Homo sapiens) [14] = target: T6, mTORC1 (Homo sapiens) (UniProt P42345+Q8N122+Q9BVC4); test: Inhibition of mTORC1 in human MCF7 cells assessed as downregulation of S6 Ser235 phosphorylation at 0.1 uM after 2 hrs by Western blot analysis; format: cell-based
T6 sequence (Q8N122 whole entry, looked up, other chains not shown): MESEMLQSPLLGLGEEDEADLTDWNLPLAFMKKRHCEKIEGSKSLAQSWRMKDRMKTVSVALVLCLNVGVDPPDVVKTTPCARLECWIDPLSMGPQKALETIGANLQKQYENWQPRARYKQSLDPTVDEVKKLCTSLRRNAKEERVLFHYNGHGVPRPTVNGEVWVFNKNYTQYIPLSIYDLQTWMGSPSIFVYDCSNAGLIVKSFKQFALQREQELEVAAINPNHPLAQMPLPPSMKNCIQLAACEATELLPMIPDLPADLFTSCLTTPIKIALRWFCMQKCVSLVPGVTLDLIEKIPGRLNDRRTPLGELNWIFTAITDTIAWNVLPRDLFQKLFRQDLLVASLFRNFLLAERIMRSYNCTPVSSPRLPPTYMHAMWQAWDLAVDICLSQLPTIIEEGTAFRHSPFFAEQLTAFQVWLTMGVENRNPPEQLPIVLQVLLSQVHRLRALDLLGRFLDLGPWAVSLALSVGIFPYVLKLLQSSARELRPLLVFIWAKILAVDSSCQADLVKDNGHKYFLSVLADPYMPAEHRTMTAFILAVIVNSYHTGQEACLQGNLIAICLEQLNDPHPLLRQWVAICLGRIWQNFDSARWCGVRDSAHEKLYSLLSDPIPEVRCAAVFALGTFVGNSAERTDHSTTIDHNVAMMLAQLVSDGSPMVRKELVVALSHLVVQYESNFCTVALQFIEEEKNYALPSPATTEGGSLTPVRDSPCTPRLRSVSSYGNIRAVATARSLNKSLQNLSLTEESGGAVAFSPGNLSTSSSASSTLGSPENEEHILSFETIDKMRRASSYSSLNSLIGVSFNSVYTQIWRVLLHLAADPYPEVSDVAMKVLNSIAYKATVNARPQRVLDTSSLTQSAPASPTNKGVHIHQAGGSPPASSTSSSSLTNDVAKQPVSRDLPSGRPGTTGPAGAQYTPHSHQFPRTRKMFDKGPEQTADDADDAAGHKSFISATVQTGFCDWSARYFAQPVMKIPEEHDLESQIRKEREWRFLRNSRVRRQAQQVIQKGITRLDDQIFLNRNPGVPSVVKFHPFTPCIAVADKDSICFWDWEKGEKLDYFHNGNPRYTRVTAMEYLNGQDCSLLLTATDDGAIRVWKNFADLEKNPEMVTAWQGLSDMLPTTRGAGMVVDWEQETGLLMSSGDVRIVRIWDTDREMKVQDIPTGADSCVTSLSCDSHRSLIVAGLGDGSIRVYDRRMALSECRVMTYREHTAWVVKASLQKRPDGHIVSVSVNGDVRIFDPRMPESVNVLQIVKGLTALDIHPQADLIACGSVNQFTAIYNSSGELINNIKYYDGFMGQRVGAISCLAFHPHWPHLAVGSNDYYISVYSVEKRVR
T6 sequence (Q9BVC4 whole entry, looked up, other chains not shown): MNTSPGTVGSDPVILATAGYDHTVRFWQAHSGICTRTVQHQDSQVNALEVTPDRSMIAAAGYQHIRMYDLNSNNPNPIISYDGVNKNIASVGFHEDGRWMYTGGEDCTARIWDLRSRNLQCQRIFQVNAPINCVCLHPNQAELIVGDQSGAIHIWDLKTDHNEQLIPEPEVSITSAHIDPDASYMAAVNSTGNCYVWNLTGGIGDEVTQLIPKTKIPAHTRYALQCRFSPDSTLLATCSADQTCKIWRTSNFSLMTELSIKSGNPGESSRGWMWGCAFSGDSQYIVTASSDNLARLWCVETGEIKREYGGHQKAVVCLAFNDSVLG

MCF7 [15] = test: Inhibition of mTORC2 in human MCF7 cells assessed as downregulation of Akt Ser473 phosphorylation at 0.5 uM after 2 hrs by Western blot analysis; format: cell-based
[16] = target: T7, Phosphatidylinositol 4,5-bisphosphate 3-kinase catalytic subunit delta isoform (Homo sapiens, UniProt O00329); test: Inhibition of PI3Kdelta (unknown origin) after 1 hr by ADP-Glo luminescent assay
T7 sequence (O00329 whole entry): T5 sequence (whole entry)

[17] = target: T2, Phosphatidylinositol 4,5-bisphosphate 3-kinase catalytic subunit beta isoform; test: Inhibition of PI3Kbeta (unknown origin) after 1 hr by ADP-Glo luminescent assay
Target sequence in this assay (P42338 whole entry, canonical isoform): as the sequence (P42338 whole entry, looked up, canonical isoform) above

[18] = target: T4, Phosphatidylinositol 4,5-bisphosphate 3-kinase catalytic subunit alpha isoform; test: Inhibition of human recombinant PI3Kalpha using PIP2 as substrate after 1 hr by Kinase-Glo luminescent assay
mTORC1 (Homo sapiens) [19] = target: T6, mTORC1 (Homo sapiens); test: Inhibition of mTORC1 in human MCF7 cells assessed as downregulation of S6 Ser235 phosphorylation at 0.5 uM after 2 hrs by Western blot analysis; format: cell-based

| Structure (SMILES) | IC50 (cells [1]) | IC50 (MCF7 [2]) | IC50 (cells [3]) | further results |
| --- | --- | --- | --- | --- |
| CC(C)(C#N)c1ccc(Nc2c(NC(=O)C(F)(F)F)cnc3ccc(-c4cnc5ccccc5c4)cc23)cc1 | > 10 µM | 1360 nM | > 10000 nM | inhibition [4]: 92% |
| CC(=O)Nc1cnc2ccc(-c3cnc4ccccc4c3)cc2c1Nc1ccc(C#N)cc1 | > 10 µM | – | > 10000 nM | IC50 [8]: > 3000 nM |
| CC(C)(C#N)c1ccc(Nc2c(NS(C)(=O)=O)cnc3ccc(-c4cnc5ccccc5c4)cc23)cc1 | > 10 µM | – | > 10000 nM | – |
| CC(C)(C)C(=O)Nc1cnc2ccc(-c3cnc4ccccc4c3)cc2c1Nc1ccc(C(C)(C)C#N)cc1 | > 10 µM | – | > 10000 nM | – |
| CC(=O)Nc1cnc2ccc(-c3cnc4ccccc4c3)cc2c1Nc1ccc(C(F)(F)F)cc1 | > 10 µM | – | > 10000 nM | IC50 [8]: > 3000 nM |
| CC(C)(C#N)c1ccc(Nc2c(N(S(C)(=O)=O)S(C)(=O)=O)cnc3ccc(-c4cnc5ccccc5c4)cc23)cc1 | > 10 µM | – | > 10000 nM | – |
| CS(=O)(=O)Nc1cnc2ccc(-c3cnc4ccccc4c3)cc2c1Nc1ccc(N2CCNCC2)c(C(F)(F)F)c1 | 5.42 µM | 1110 nM | 1450 nM | – |
| COc1cc(Nc2c(NC(C)=O)cnc3ccc(-c4cnc5ccccc5c4)cc23)cc(OC)c1 | > 10 µM | – | > 10000 nM | IC50 [8]: > 3000 nM |
| CC(=O)N1CCN(c2ccc(Nc3c(NC(=O)C(C)(C)C)cnc4ccc(-c5cnc6ccccc6c5)cc34)cc2C(F)(F)F)CC1 | > 10 µM | 790 nM | > 10000 nM | – |

The next compounds have a lower IC50 (cells [1]) than those just listed; values first:

| IC50 (cells [1]) | IC50 (MCF7 [2]) | IC50 (cells [3]) | Structure (SMILES) | further results |
| --- | --- | --- | --- | --- |
| 3.82 µM | 320 nM | 1240 nM | O=C(Nc1cnc2ccc(-c3cnc4ccccc4c3)cc2c1Nc1ccc(N2CCNCC2)c(C(F)(F)F)c1)C(F)(F)F | – |
| 3.44 µM | 470 nM | 1610 nM | Nc1cnc2ccc(-c3cnc4ccccc4c3)cc2c1Nc1ccc(N2CCNCC2)c(C(F)(F)F)c1 | – |
| 2.56 µM | 440 nM | 3950 nM | CC(=O)Nc1cnc2ccc(-c3cnc4ccccc4c3)cc2c1Nc1ccc(C(C)(C)C#N)cc1 | – |
| 1.05 µM | 300 nM | 640 nM | CC(C)(C)C(=O)Nc1cnc2ccc(-c3cnc4ccccc4c3)cc2c1Nc1ccc(N2CCNCC2)c(C(F)(F)F)c1 | – |
| 0.5 µM | 110 nM | 360 nM | CC(=O)Nc1cnc2ccc(-c3cnc4ccccc4c3)cc2c1Nc1ccc(N2CCNCC2)c(C(F)(F)F)c1.Cl | inhibition [5]: 1%; inhibition [6]: 47.3%; inhibition [7]: 42.1%; IC50 [8]: 22 nM; Stability [9]: Stable; Stability (Liver microsome): Stable; inhibition [10]: 34.9%; Stability [11]: Stable |
| 0.19 µM | – | 140 nM | Cn1c(=O)n(-c2ccc(C(C)(C)C#N)cc2)c2c3cc(-c4cnc5ccccc5c4)ccc3ncc21 [DACTOLISIB] | – |
| 0.19 µM | 60 nM | 430 nM | CC(=O)Nc1cnc2ccc(-c3cnc4ccccc4c3)cc2c1Nc1ccc(N2CCN(S(C)(=O)=O)CC2)c(C(F)(F)F)c1 | – |
| 0.17 µM | 40 nM | 110 nM | CC(=O)Nc1cnc2ccc(-c3cnc4ccccc4c3)cc2c1Nc1ccc(N2CCN(C(C)=O)CC2)c(C(F)(F)F)c1 | Activity (MCF7 [12]): Active; IC50 [13]: 502 nM; Activity (mTORC1 (Homo sapiens) [14]): Active; Activity (MCF7 [15]): Active; IC50 [8]: 30 nM; IC50 [16]: 2080 nM; IC50 [17]: > 5 µM; IC50 [18]: 1500 nM; Activity (mTORC1 (Homo sapiens) [19]): Active |
